# Measured values taken from US10351915B2 (Berg LLC, priority 2009, dated 2019).
# How the values were obtained:
# SKMEL-28 mitochondria = assay: 2-D gel electrophoresis of mitochondria enriched samples; format: cell-based
# SCC cells = assay: Real-time PCR Diabetes Array; format: cell-based
# From the text: The control cells were untreated cells.
# Caspase 3 = assay: Western blot, Caspase 3 levels; format: cell-based, human; conditions: PACA2, 5g glucose, amount 50
# Experimental: The blots were stripped by incubating for 30 minutes with methanol, followed by two 10 minute washes with TBS-T, then 30 minutes of incubation with Stripping buffer at 50 deg C., and followed by two washes with 100 ml or more of TBS-T for 30′ each. The 2 blots were scanned in laser scanner to check for complete stripping. The blots were activated with methanol for 5 seconds, washed with water for 5 minutes, and TBST for 15 minutes. The blots were blocked for 1 hour with 5% blocking reagent in TBS-T at room temperature and then washed 3 times with TBS-T (1×-15′; 2×5′ each) and probed with the antibody for Caspase 3 in 5% BSA (Santacruz Biotechnology # sc7272) at 1:200 dilutions) overnight at 4 deg C. with shaking. After the overnight incubation with primary antibody for Caspase 3, the membranes were washed 3 times with TBS-T (1×-15′; 2×5′ each) and probed with the secondary antibody (antimouse; 1:10,000 dilution) for 1 h on the orbital tilting shaker at room temperature. […]
# The levels of Caspase 3 and actin were determined by probing the blots successively with primary antibodies for Caspase 3 and actin, essentially as described above. […]
# HDFa cells = assay: Oxygen consumption rate (OCR), SeaHorse XF analyzer; format: cell-based, human; conditions: normal cells (HDFa)
# From the text: (SeaHorse Biosciences Inc, North Billerica, Mass.).
# In this experiment, the OCR and extracellular acidification rate (ECAR) in normal cells lines were obtained in the presence and absence of CoQ10 to determine baseline values. It was observed that in its native nutrient environment, the basal OCR rates in normal cells lines are different, and are usually a function of the physiological roles of the cells in the body.
# FIGS. 37 and 38 below describes the OCR in HDFa and HASMC cells grown in physiologically normal glucose (about 4.6 mM) and high glucose (hyperglycemic) conditions.
# [1] = one study with rats; cited from earlier work
smiles,measurement,setting,value
"COC1=C(OC)C(=O)C(C/C=C(\C)CC/C=C(\C)CC/C=C(\C)CC/C=C(\C)CC/C=C(\C)CC/C=C(\C)CC/C=C(\C)CC/C=C(\C)CC/C=C(\C)CCC=C(C)C)=C(C)C1=O [Q10, Coenzyme Q10]","Response, direction","SKMEL-28 mitochondria; 100 μM Q10, at 6 hr, protein spot 372",Up
same,Response,"SKMEL-28 mitochondria; 100 μM Q10, at 19 hr",Up only at 19 hr
same,Response,"SKMEL-28 mitochondria; 100 μM Q10, at 48 hr",Up at 48 hr
same,Regulation (mRNA),"SCC cells; 100 μM Q10, at 6 and 24 hours",Down regulated at 6 and 24
same,Regulation (mRNA),"SCC cells; 100 μM Q10, at 6 hours",Down regulated at 6 hours.
same,Caspase 3 Normalized Volume (48 h),Caspase 3,701
same,OCR,HDFa cells,influenced OCR
same,orally-administered CoQ10 absorbed,[1],2-3%
